# Measured values published in paper PMC8208785, “Therapeutic efficacy of novel memantine nitrate MN‐08 in animal models of Alzheimer’s disease” (Aging Cell, 2021).
# Tested on: cerebellar granule neurons (CGNs)
# Assay: MTT cell viability, glutamate-induced excitotoxicity in CGNs
# Type: cell-based, rat
# Settings: MN‐08 1–50 µM for 2 h, then 100 μM glutamate 24 h
# Method: Excessive glutamate‐induced excitotoxicity might cause dysfunctions of cellular pathways, subsequently resulting in synaptic dysfunctions and neuronal loss. To evaluate the neuroprotective effects of MN‐08 against excitotoxicity, cerebellar granule neurons (CGNs) were treated with MN‐08 at the concentrations from 1 to 50 µM or memantine from 1 to 10 μM for 2 h, and then exposed to 100 μM glutamate for 24 h. […] Similarly, in APP/PS1 mice, MN‐08 prevented neuronal loss in the hippocampus by upregulating the expression ratio of Bcl‐2/Bax and downregulating the expression ratio of cleaved Caspase‐3 to Caspase‐3 (Figure S6).
# CGNs were prepared from the 8-day-old Sprague–Dawley rats as described in our previous publication (Li et al., 2005). Briefly, animals were anesthetized and sacrificed, and their cerebella were collected. […]
# Neurotoxicity was assessed using the tetrazolium salt 3-(4,5-dimethylthiazol-2-yl)-2,5- diphenyltetrazolium bromide dye (MTT) assay as previous publication (Luo et al., 2010). […] Cell viability was evaluated by observing colorimetric changes using a CLARIOstar plus Microplate Reader (BMG Labtech, Ortenberg, Germany) at a test wavelength of 570 nm with 655 nm as a reference wavelength. Data were expressed as a percentage of control cultures.
structure (smiles),measurement,value
CCC12CC3CC(N)(C1)CC(CO[N+](=O)[O-])(C3)C2 (stereo not shown) [MN‐08],protection against glutamate‐induced excitotoxicity (MTT),concentration‐dependently protect
